pIC50: −log10 of the molar value.
Legend:
[1] = Evaluation of pharmacokinetics in rats; assay type: in vivo; conditions: male, SD, rat, plasma, 1 mg/kg, oral gavage (PO, 1 mpk)
From the text: Test Animals: 6-8 Week Old Male SD Rats
Food was restored two hours after dosing.

[2] = Evaluation of pharmacokinetics in mice; conditions: male, ICR (CD1), mouse, plasma, po, 10 mg/kg
Experimental: Test Objective: The pharmacokinetics of the example compounds of the present application were tested in mice. By measuring the drug concentration in mouse plasma, the pharmacokinetic behavior of the compounds of the present invention was studied to evaluate their pharmacokinetic characteristics.
Test Animals: 6-8 Week Old Male ICR (CD1) Mice
Oral Gavage Drug Preparation: An appropriate amount of the test compound was first weighed and dissolved in DMSO (Macklin cas: 67-68-5) to prepare a 20 mg/mL solution. Then, 75 μL of this solution was added to 150 μL of Solutol (Sigma cas: 70142-34-6), followed by 1.275 mL of 20% Captisol (Selleck cas: 182410-00-0), resulting in a final drug concentration of 1 mg/mL.
Intravenous Injection Drug Preparation: An appropriate amount of the test compound was first weighed and dissolved in DMSO (Macklin cas: 67-68-5) to prepare a 30 mg/mL solution. Then, 15 μL of this solution was added to 150 μL of Solutol (Sigma cas: 70142-34-6), followed by 1.335 mL of 20% Captisol (Selleck cas: 182410-00-0), resulting in a final drug concentration of 0.3 mg/mL.
Procedures: The mice were fasted overnight with free access to water before the experiment. Food was restored two hours after dosing. Blood samples were collected at different time points after intravenous injection or oral gavage of the test compound in mice, and the compound concentration in plasma was measured. Approximately 50 μL of blood was collected from each animal using a capillary sampling tube via the orbital venous plexus, with heparin sodium as an anticoagulant. Blood samples were placed on ice, centrifuged at 3500 r/min for 10 minutes to separate the plasma, and 20 μL of the collected plasma was added to 200 μL of acetonitrile (Merck cas: 75-05-8) containing 200 nM dexamethasone (Selleck cas: 50-02-2) as an internal standard. The mixture was centrifuged at 8000 r/min for 20 minutes. After centrifugation, 150 μL of the supernatant was transferred to a new centrifuge tube, and 150 μL of 0.1% formic acid (Fisher cas: 207868) was added. The mixture was mixed well, and 5 μL of the sample was subjected to quantitative analysis by liquid chromatography-mass spectrometry (Q-TOF LC/MS).
The test compound was serially diluted with DMSO to cover the compound concentrations expected in plasma samples to be tested, with a blank sample (containing only DMSO) included.
2 μL of each diluted sample at various concentrations was added to 18 μL of normal ICR mouse plasma, mixed, and then added to 200 μL of acetonitrile (Merck cas: 75-05-8) containing 200 nM dexamethasone (Selleck cas: 50-02-2) as an internal standard. The mixture was centrifuged for 20 minutes (8000 r/min). 150 μL of the supernatant was transferred to a new centrifuge tube, and 150 μL of 0.1% formic acid (Fisher cas: 207868) was added. The mixture was mixed well, and 5 μL of the sample was subjected to quantitative analysis by liquid chromatography-mass spectrometry (Q-TOF LC/MS).
The final standard curve was plotted using the concentration of the test compound after dilution on the abscissa and the ratio of the signal of the compound to the internal standard (dexamethasone) on the ordinate. The standard curve was generated using linear regression with GraphPad Prism 8 software (R2>0.9900).
Data Analysis: calculation of pharmacokinetic parameters: the concentration of the test compound in plasma at different time points after intravenous injection or oral gavage in ICR mice was determined based on the above standard curve, and pharmacokinetic parameters (T1/2, Cmax, AUC, etc.) were calculated using the Phoenix WinNonlin 8.1 non-compartmental analysis model.

[3] = Liver microsome metabolism assay; conditions: CD1, mouse, liver microsomes
Experimental: Experimental Materials: Mixed CD1 mouse liver microsomal enzyme protein was purchased from Xenotech (#M1000), and NADPH was purchased from Abmole (#M9076).
1. To the liver microsomal enzyme reaction system, 210 μL of phosphate buffer was added, followed by 12.5 μL of liver microsomal enzyme at a concentration of 20 mg/mL. Then, 25 μL of NADPH at a concentration of 10 mM was added to the system, mixed well, and incubated in a 37° C. water bath with shaking for 10 minutes.
2. The test compound, stored at a concentration of 10 mM, was diluted to 100 μM with DMSO. Then, 2.5 μL of the diluted test compound was added to the reaction system, mixed well, and incubated in a 37° C. water bath with shaking.
3. At 0.5, 5, 10, 20, 30, and 60 minutes, 25 μL of the enzyme reaction mixture was taken and added to 125 μL of cold acetonitrile containing dexamethasone as an internal standard. The mixture was centrifuged at 4000 g for 20 minutes, and the supernatant was mixed with an equal volume of distilled water. The mixed sample was then subjected to quantitative analysis by liquid chromatography-mass spectrometry.
4. Calculation of in vitro drug metabolism half-life and drug clearance rate:
t1/2=−0.693/k. (k: the slope of the linear regression of the natural logarithm of the percentage of drug remaining versus incubation time).

PARP1 [4] = biological target: T1, PARP1 (Homo sapiens (Human), UniProt P09874); assay: PARP1 trapping assay; assay type: biochemical; conditions: read-out: Inhibitory Effect on PARP1 Trapping IC50
T1 sequence (P09874 whole entry): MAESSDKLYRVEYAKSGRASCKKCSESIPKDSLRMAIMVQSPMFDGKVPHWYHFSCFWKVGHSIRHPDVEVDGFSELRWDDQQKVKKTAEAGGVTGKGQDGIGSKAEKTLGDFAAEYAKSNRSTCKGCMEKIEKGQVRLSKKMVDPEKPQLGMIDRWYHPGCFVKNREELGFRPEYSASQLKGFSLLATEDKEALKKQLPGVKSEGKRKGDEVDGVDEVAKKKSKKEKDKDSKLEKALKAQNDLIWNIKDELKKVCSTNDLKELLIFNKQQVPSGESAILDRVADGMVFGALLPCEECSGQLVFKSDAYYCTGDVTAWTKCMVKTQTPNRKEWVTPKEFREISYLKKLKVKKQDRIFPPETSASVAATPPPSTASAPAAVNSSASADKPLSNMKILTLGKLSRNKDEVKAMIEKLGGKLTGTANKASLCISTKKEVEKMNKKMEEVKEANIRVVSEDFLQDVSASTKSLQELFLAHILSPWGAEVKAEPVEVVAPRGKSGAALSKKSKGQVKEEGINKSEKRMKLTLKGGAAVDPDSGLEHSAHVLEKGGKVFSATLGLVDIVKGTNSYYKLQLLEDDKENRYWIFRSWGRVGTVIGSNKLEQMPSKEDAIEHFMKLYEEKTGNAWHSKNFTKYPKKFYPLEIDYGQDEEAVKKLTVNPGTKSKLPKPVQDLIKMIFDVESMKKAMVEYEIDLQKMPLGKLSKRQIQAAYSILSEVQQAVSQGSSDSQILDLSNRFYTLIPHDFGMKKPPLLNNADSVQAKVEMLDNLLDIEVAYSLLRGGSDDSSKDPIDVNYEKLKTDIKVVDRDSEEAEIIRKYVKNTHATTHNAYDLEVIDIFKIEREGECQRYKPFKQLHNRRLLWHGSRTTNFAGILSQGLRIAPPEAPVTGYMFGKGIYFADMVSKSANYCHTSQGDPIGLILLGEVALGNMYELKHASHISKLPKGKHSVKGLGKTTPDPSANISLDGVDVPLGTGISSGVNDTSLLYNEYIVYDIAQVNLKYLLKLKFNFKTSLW
Experimental: [table] […] 1. A 4× enzyme reaction mixture, comprising PARP1, PARP2, and GST-Tb antibody, was prepared with the buffer and 4 μL of the enzyme reaction mixture was added to a 384-well plate. 2. A 4×PARP1 and PARP2 probe reaction mixture was prepared with the buffer and 4 μL of the probe reaction mixture was added to the 384-well plate. 3. A series of gradient-diluted compounds were prepared and 4 μL of the diluted compounds were added to the 384-well plate, and incubated at room temperature for 45 minutes. 4. After incubation, 4 μL of 4×NAD reaction mixture was added to the 384-well plate and incubated at room temperature for 10 minutes. 5. After incubation, the plate was read using a plate reader. 6. Data Analysis: The percentage inhibition rate was calculated as follows: Inhibition Rate (%)=(Reading of Compound Group−Reading of Blank Group)/(Reading of Vehicle Control Group−Reading of Blank Group).

[5] = tested on: MDA-MB-436 breast cancer cells; assay: Cell proliferation assay, MDA-MB-436; assay type: cell-based; conditions: Homo sapiens, MDA-MB-436, 168 h; proliferation, 7 days; read-out: MDA-MB-436 Cell IC50
Experimental: Experimental Materials: MDA-MB-436 or UWB1.289 cell lines were purchased from Cobioer Biosciences Co. Ltd. (Nanjing, China). The STR identification results were a complete match, and mycoplasma testing was negative. MDA-MB-436 cells were cultured in DMEM complete medium containing 10% fetal bovine serum, 1% penicillin-streptomycin, 1% insulin, and 16 μg/mL glutathione; UWB1.289 cells were cultured in RMPI1640 complete medium containing 10% fetal bovine serum and 1% penicillin-streptomycin.
1. MDA-MB-436 or UWB1.289 cells were cultured in the aforementioned medium (culture conditions: 37° C., 5.0% CO2 in air) until they reached the logarithmic growth phase. The cells were then digested with trypsin containing 0.25% EDTA, centrifuged at 1000 rpm, and the supernatant was discarded. Cell culture medium was added, and the cell suspension was adjusted to 2×10^4/mL after counting. 135 μL of the cell suspension per well was taken and cultured in a 96-well cell culture plate for 16 hours (culture conditions: 37° C., 5.0% CO2 in air).
2. The test compounds, stored at a concentration of 10 mM, were diluted 2.5 times with DMSO and then serially diluted in a 1:3 gradient (9 gradients). The gradient-diluted samples were further diluted 40 times with serum-free medium, and 15 μL of each was added to the 96-well cell culture plate. The positive control group received serum-free medium containing the same concentration of DMSO, and the negative control group received medium without cells. The cells were then cultured for an additional 7 days.
3. After the culture period, the cell culture plate was placed at room temperature for 30 minutes. Then, 100 μL of CellCounting-Lite 2.0 reagent (Vazyme, #DD1101) was added to each well, mixed thoroughly, and incubated in the dark at room temperature for 10 minutes. The luminescence signal was read using a Synergy HTX multi-mode reader.
(§1) 4. Data analysis was performed using GraphPad Prism 8.0 software. The inhibition rate (%) was calculated as 100*(average luminescence signal of the positive control group−luminescence signal of the compound)/(average luminescence signal of the positive control group−average luminescence signal of the negative control group). The IC50 value was obtained by plotting the logarithm of the compound concentration against the percentage inhibition rate.

[6] = tested on: peripheral blood reticulocytes; assay: Effect of compound on rat reticulocytes; assay type: in vivo; conditions: 4 days
Experimental: Test Objective: The effect of the compound on peripheral blood reticulocytes was evaluated to determine its impact on bone marrow hematopoietic function.
(§2) Test Compounds: Olaparib, Compound 1
(§3) Experimental Animals: Male Sprague Dawley rats were purchased from Beijing Charles River Laboratory Animal Technology Co., Ltd. Housing and Management: The experimental animals were housed in SPF-grade, temperature- and humidity-controlled clean rooms, using individually ventilated cages (IVC) with no more than 5 rats per cage. Temperature/humidity was controlled within the range of (23±3)° C./40-70%. Feed and water: SPF-grade rat feed, sterilized by cobalt-60 irradiation. Drinking water was ultrafiltered and autoclaved. Animals had free access to sterile food and water. Animal identification: ear tags.
Experimental Method: The experiment was divided into the following 5 groups: vehicle control group; Olaparib 100 mg/kg; Compound 1 0.1 mg/kg; Compound 1 0.3 mg/kg; and Compound 1 1.0 mg/kg. All treatments were administered orally by gavage once daily for 4 days. Blood samples were collected before and after treatment to measure peripheral blood reticulocyte counts.

[7] = tested on: human breast cancer (MDA-MB-436) cell line; assay: Mouse CDX tumor model (MDA-MB-436 subcutaneous xenograft); assay type: in vivo
Experimental: Test Objective: The efficacy of the compounds was evaluated in a subcutaneous xenograft model of human breast cancer (MDA-MB-436) cell line in mice.
as §2
Experimental Animals: Female NOD SCID mice, 4-5 weeks old, purchased from Nanjing Jicui.
as §3, with “Housing” for “Experimental Animals: Male Sprague Dawley rats were purchased from Beijing Charles River Laboratory Animal Technology Co., Ltd. Housing”, “5 mice” for “5 rats”, “SPF-grade mouse” for “SPF-grade rat”
Tumor Cell Line and Tumor Model: MDA-MB-436 cells (Nanjing Cobioer Biotechnology Co., Ltd., Cat. No: CBP60385) were cultured in vitro in DMEM complete medium containing 10% fetal bovine serum, 1% penicillin-streptomycin, 1% insulin, and 16 μg/mL glutathione (37° C., 5% CO2). When the cells met the requirements for the in vivo efficacy experiment, they were collected, counted, and prepared into a PBS cell suspension. Each mouse (5-6 weeks old NOD SCID) was inoculated subcutaneously on the right flank with 0.9×10^7 cells. Tumor volume was measured and calculated three times a week after inoculation. When the tumor volume reached approximately 200-300 mm^3, the mice were grouped for administration.
Experimental Groups: The experiment was divided into the following groups: vehicle control group; Olaparib 100 mg/kg group; Compound 1 0.1 mg/kg group; Compound 1 0.3 mg/kg group; and Compound 1 1.0 mg/kg group. All groups were administered orally by gavage once daily. […] After 28 days of administration, the tumor volume was used to calculate the tumor growth inhibition rate (TGI %), and the tumor inhibition effect was statistically analyzed using software such as Excel, etc.

PARP1 [8] = biological target: T1, PARP1; assay: PARP enzyme activity assay (PARP1 chemiluminescent assay kit); assay type: biochemical; conditions: enzyme inhibitory activity, read-out: PARP-1 IC50
From the text: Experimental Materials: The PARP1 assay kit was purchased from BPS Bioscience, USA, specifically the 384-well chemiluminescent assay kit (Catalog No.: #80551).
Experimental Principle: PARP can catalyze the transfer of ADP-ribose residues from NAD+ to target substrates, thereby modifying proteins through ribosylation. This experiment measures PARP1 enzyme activity by detecting the poly(ADP-ribosylation) of histones by PARP1.
Preparation of Reagents and Test Compounds: The 10× assay buffer included in the kit was diluted to 1× with distilled water. The test compound (stock concentration of 10 mM) was diluted to 10 μM with a DMSO solution and then serially diluted in a 1:3 ratio. The serially diluted compounds were further diluted 10-fold with the 1× assay buffer.
Experimental Method: The procedure was carried out according to the kit's instructions:
1. The 5× histone mixture was diluted to 1× with PBS, and 25 μL was added to each well of a 384-well plate, incubating overnight at 4° C.
2. After incubation, 100 μL of PBST (0.05% Tween 20) was added to each well for washing, repeated three times. Then, 100 μL of blocking solution was added to each well and incubated at room temperature for 90 minutes.
3. After incubation, the wells were washed three times with PBST, and then 1.25 μL of 10× assay buffer, 1.25 μL of 10×PARP assay mixture, 2.5 μL of activation DNA (5×), and 7.5 μL of distilled water were added to each well.
4. […] The positive control group and the negative control group were added with 1× assay buffer containing the same concentration of DMSO.
5. Next, 10 μL of 2.5 ng/μL PARP1 enzyme was added to the test compound and positive control groups, while 10 μL of 1× assay buffer was added to the negative control group, and the mixture was incubated at room temperature for 60 minutes.
6. Streptavidin-HRP was diluted 1:50 with the blocking solution. After incubation, the plate was washed three times with PBST, and 25 μL of the diluted streptavidin-HRP solution was added to each well, incubating at room temperature for 30 minutes.
7. After incubation, the plate was washed three times with PBST, and 50 μL of the mixed substrate A and substrate B in equal volumes was added. The luminescence signal was immediately read on a Synergy HTX multi-mode reader.
as §1, with “8.” for “4.”, “%=100*(average” for “(%) was calculated as 100*(average”

SMILES | AUC(0-inf) [2] [µg·h/mL] | Cmax [2] [ng/mL] | half-life [2] [h] | microsomal CLint at 1 µM [3] [µL/min/mg] | pIC50 (PARP1 [4]) | pIC50 [5] | other results
CCc1cc2ncc(CN3CCN(c4ccc(C(=O)NC)nc4)CC3)cc2[nH]c1=O [AZD5305, reference compound] | 357 | 37300 | 8.25 | 1.23 |  |  | AUC(0-inf) [1]: 5.6 µg·h/mL; Cmax [1]: 1400 ng/mL; half-life [1]: 4.09 h
CNC(=O)c1ccc(N2CCN([C@@H](C)c3cnc4c(C)c(C(F)(F)F)c(=O)[nH]c4c3)CC2)cn1 [Compound 91, (S)—N-methyl-5-(4-(1-(8-methyl-6-oxo-7-(trifluoromethyl)-5,6-dihydro-1,5-naphthyridin-3-yl)ethyl)piperazin-1-yl)picolinamide] |  |  |  | 0.3 | 8.54 | 8.49 | 
CNC(=O)c1ccc(N2CCN(Cc3cc4[nH]c(=O)c(C(F)(F)F)c(C)c4cn3)C[C@H]2C)cn1 [Compound 88, (R)—N-methyl-5-(2-methyl-4-((4-methyl-2-oxo-3-(trifluoromethyl)-1,2-dihydro-1,6-naphthyridin-7-yl)methyl)piperazin-1-yl)picolinamide] | 1650 | 38200 | 26.3 | 0.84 | 8.81 | 8.24 | 
CNC(=O)c1ccc(N2CCN(Cc3cc4[nH]c(=O)c(C(F)(F)F)c(C)c4cn3)[C@H](C)C2)cn1 [Compound 87, (R)—N-methyl-5-(3-methyl-4-((4-methyl-2-oxo-3-(trifluoromethyl)-1,2-dihydro-1,6-naphthyridin-7-yl)methyl)piperazin-1-yl)picolinamide] |  |  |  | 1.01 | 8.59 | 8.24 | 
CNC(=O)c1ccc(N2CCN([C@H](C)c3cnc4c(C)c(C(F)(F)F)c(=O)[nH]c4c3)CC2)cn1 [Compound 90, (R)—N-methyl-5-(4-(1-(8-methyl-6-oxo-7-(trifluoromethyl)-5,6-dihydro-1,5-naphthyridin-3-yl)ethyl)piperazin-1-yl)picolinamide] | 1360 | 49900 | 20.2 | 0.21 | 8.36 | 8.14 | 
O=C(c1cc(Cc2n[nH]c(=O)c3ccccc23)ccc1F)N1CCN(C(=O)C2CC2)CC1 [Olaparib, reference compound] |  |  |  |  |  |  | Reticulocyte Inhibition Rate ([6]; 100 mg/kg oral once daily): 91.6%; Effect on peripheral blood reticulocytes (in words) ([6]; 100 mg/kg, p<0.01): significantly reduced; Tumor Growth Inhibition Rate (TGI) ([7]; 100 mg/kg oral once daily, 28 days): 89%; Body weight vs vehicle control group ([7]; MDA-MB-436 model, all treatment groups): no significant difference
CNC(=O)c1ccc(N2CCN(C(C)c3cnc4c(C)c(C(F)(F)F)c(=O)[nH]c4c3)CC2)cn1 (stereo not drawn) [Compound 24, N-methyl-5-(4-(1-(8-methyl-6-oxo-7-(trifluoromethyl)-5,6-dihydro-1,5-naphthyridin-3-yl)ethyl)piperazin-1-yl)picolinamide] | 1100 | 26300 | 28.7 | 0.4 |  | 8.36 | 
Cc1c(C(F)(F)F)c(=O)[nH]c2cc(CN3CCN(c4cc5c(cn4)C(=O)NC5)CC3)cnc12 [Compound 15, 4-methyl-7-((4-(3-oxo-2,3-dihydro-1H-pyrrolo[3,4-c]pyridin-6-yl)piperazin-1-yl)methyl)-3-(trifluoromethyl)-1,5-naphthyridin-2(1H)-one] |  |  |  | 0.75 |  |  | pIC50 (PARP1 [8]): 8.46
